# Assay results as given in patent publication US7034020B2, “Derivatives of butyric acid and uses thereof” (The University of Arkansas for Medical Science, priority 1999, dated 2006).
# What was measured:
# [1] = system: KLH-specific Th1 cells (clone D3); assay: Th1 cell anergy induction in vitro (primary culture with MEB, secondary culture restimulation); assay type: cell-based, C57BL/10 mice; settings: for Proliferation in antigen-stimulated secondary cultures: secondary: KLH
# Description: KLH-specific Th1 cells (clone D3) are incubated in primary cultures with (FIG. 5A) MEB (1 mM) and/or IL-2 (10% Con A CM), or (FIG. 5B) MEB (1 mM) and/or KLH (50 μg/ml). After 2 days, the Th1 cells are isolated from the primary cultures, rested, and then re-incubated in secondary cultures stimulated with antigen (KLH, 50 μg/ml) or IL-2 (10% Con A CM).
# Th1 cells are treated with MEB in the presence or absence of antigen or exogenous IL-2.
# The ability of the butyrate derivative to induce Th1 cell anergy is examined using a protocol previously developed for n-butyrate-induced T cell tolerance (Gilbert and Weigle, 1993). Briefly, Th1 cells are incubated in primary cultures at 2.5×10^5 cells/ml, along with MEB (1 mM), KLH (50 μg/ml), and 5×10^6/ml irradiated syngeneic spleen cells as APC. Alternatively, the Th1 cells are incubated in primary cultures containing MEB and IL-2 (10% Con A CM). Control primary cultures receive MEB and APC, but no antigen or IL-2. After incubation for 24 h at 37° C., the cells in the primary cultures are harvested, washed free of MEB, and reincubated at 2.5×10^5 ml in secondary cultures without MEB. The Th1 cells in the secondary cultures are stimulated with 10% IL-2-cQntaining Con A CM, or with 5×10^6/ml irradiated syngeneic spleen cells as APC, and KLH. After 2 days in the secondary cultures, the Th1 cells are assessed for proliferation (pulsed with [^3H]-TdR for 12 h).
# [2] = Toxicity in mice treated with MEB; assay type: in vivo; settings: dose approximated 0.7 g/kg/day
compound,measurement,setting,value
"CCCC(=O)OCCN1CCOCC1.Cl [MEB, 2-(4-Morpholinyl)ethyl butyrate hydrochloride]",Proliferation in antigen-stimulated secondary cultures,[1]; primary culture: IL-2 and MEB (1 mM),retain their ability to proliferate to antigen
same,Proliferation in antigen-stimulated secondary cultures,[1]; primary culture: MEB alone (1 mM),retain their ability to proliferate in response to antigen stimulation
same,Proliferation in secondary cultures stimulated with exogenous IL-2,"[1]; primary culture: antigen (KLH) and MEB (1 mM), secondary: IL-2",can still proliferate
same,Proliferation in antigen-stimulated secondary cultures,[1]; primary culture: antigen (KLH) and MEB (1 mM),lose their ability to proliferate
same,Toxicity,[2],No toxicity
